Reference: patent US20230203021A1, “GLP-1 RECEPTOR AGONIST, PHARMACEUTICAL COMPOSITION COMPRISING SAME, AND METHOD FOR PREPARING SAME” (LG CHEM, LTD., priority 2020, published 2023)

target: T1, hGLP-1R (Homo sapiens, UniProt P43220); assay: Measurement of activity of GLP-1R agonist (cell-based luciferase assay), CHO-K1/hGLP-1R/CRE-luciferase cell line; conditions: GLP-1R activity; CHO-K1/hGLP-1R/CRE-luciferase cells, 9 concentrations, four hours of incubation, Bright-Glo luminescence
T1 construct: expressed in transfected cells; host or cells: CHO-K1
T1 sequence (P43220 24-463): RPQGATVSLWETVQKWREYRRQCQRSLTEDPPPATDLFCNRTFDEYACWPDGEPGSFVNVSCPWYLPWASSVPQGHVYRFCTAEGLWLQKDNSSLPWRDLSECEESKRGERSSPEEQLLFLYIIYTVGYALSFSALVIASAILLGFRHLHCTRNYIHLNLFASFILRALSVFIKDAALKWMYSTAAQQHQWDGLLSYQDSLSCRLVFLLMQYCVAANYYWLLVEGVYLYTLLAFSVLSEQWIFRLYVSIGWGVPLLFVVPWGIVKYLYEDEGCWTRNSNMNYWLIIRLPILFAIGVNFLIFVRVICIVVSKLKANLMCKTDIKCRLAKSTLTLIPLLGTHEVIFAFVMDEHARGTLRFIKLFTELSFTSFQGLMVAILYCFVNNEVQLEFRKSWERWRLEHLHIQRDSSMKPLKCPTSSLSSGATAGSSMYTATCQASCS
Protocol: 15,000 cells of a CHO-K1/hGLP-1R/CRE-luciferase cell line were seeded in a 96-well plate. A medium used herein was Ham’s F-12 Nutrient medium. The cells were incubated for 18 hours in a 5% CO2 incubator which was maintained at 37° C., and then treated with drugs. Each drug dispensed at 9 different concentrations was dissolved in a DMEM/F-12 + 1% FBS medium, and the cell line was treated with each of 100 µl thereof. After four hours of incubation, a Bright-Glo® luciferase assay system kit was used to add 30 µl of an assay reagent per well. A plate was stored at room temperature for 15 minutes, and then luminescence was measured using a SpectraMax M5 reader.

Row | SMILES | EC50 [nM]
1 | CCCn1cnnc1Cn1c(Cc2ccc(-c3cccc(OCc4ccc(C(F)(F)F)cc4F)n3)cc2)nc2ccc(C(=O)O)cc21 [Example 25, 2-(4-(6-((2-fluoro-4-(trifluoromethyl)benzyl)oxy)pyridin-2-yl)benzyl)-1-((4-propyl-4H-1,2,4-triazol-3-yl)methyl)-1H-benzo[d]imidazole-6-carboxylic acid] | 0.402
2 | CCCn1cnnc1Cn1c(Cc2ccc(-c3cccc(OCc4ccc(Cl)cc4F)n3)c(Cl)c2)nc2ccc(C(=O)O)cc21 [Example 26, 2-(3-chloro-4-(6-((4-chloro-2-fluorobenzyl)oxy)pyridin-2-yl)benzyl)-1-((4-propyl-4H-1,2,4-triazol-3-yl)methyl)-1H-benzo[d]imidazole-6-carboxylic acid] | 0.775
3 | CCCn1cnnc1Cn1c(Cc2ccc(-c3cccc(OCc4ccc(Cl)cc4F)n3)c(F)c2)nc2ccc(C(=O)O)cc21 [Example 27, 2-(4-(6-((4-chloro-2-fluorobenzyl)oxy)pyridin-2-yl)-3-fluorobenzyl)-1-((4-propyl-4H-1,2,4-triazol-3-yl)methyl)-1H-benzo[d]imidazole-6-carboxylic acid] | 0.13
4 | O=C(O)c1ccc2nc(Oc3ccc(-c4cccc(OCc5ccc(Cl)cc5F)n4)cc3)n(CC3CCCO3)c2c1 (stereo not shown) [Example 28, 2-(4-(6-((4-chloro-2-fluorobenzyl)oxy)pyridin-2-yl)phenoxy)-1-((tetrahydrofuran-2-yl)methyl)-1H-benzo[d]imidazole-6-carboxylic acid] | 1.12
5 | O=C(O)c1ccc2nc(Cc3ccc(-c4cccc(OCc5ccc(C(F)(F)F)cc5F)n4)cc3)n(C[C@@H]3CCCO3)c2c1 [Example 29, (S)-2-(4-(6-((2-fluoro-4-(trifluoromethyl)benzyl)oxy)pyridin-2-yl)benzyl)-1-((tetrahydrofuran-2-yl)methyl)-1H-benzo[d]imidazole-6-carboxylic acid] | 0.208
6 | O=C(O)c1ccc2nc(Cc3ccc(-c4cccc(OCc5ccc(Cl)cc5F)n4)cc3F)n(C[C@@H]3CCCO3)c2c1 [Example 30, (S)-2-(4-(6-((4-chloro-2-fluorobenzyl)oxy)pyridin-2-yl)-2-fluorobenzyl)-1-((tetrahydrofuran-2-yl)methyl)-1H-benzo[d]imidazole-6-carboxylic acid] | 0.0327
7 | O=C(O)c1ccc2nc(Oc3ccc(-c4cccc(OCc5ccc(Cl)cc5F)n4)cc3F)n(C[C@@H]3CCCO3)c2c1 [Example 31, (S)-2-(4-(6-((4-chloro-2-fluorobenzyl)oxy)pyridin-2-yl)-2-fluorophenoxy)-1-((tetrahydrofuran-2-yl)methyl)-1H-benzo[d]imidazole-6-carboxylic acid] | > 80
8 | O=C(O)c1ccc2nc(Oc3ccc(-c4cccc(OCc5ccc(Cl)cc5F)n4)cc3Cl)n(C[C@@H]3CCCO3)c2c1 [Example 32, (S)-2-(2-chloro-4-(6-((4-chloro-2-fluorobenzyl)oxy)pyridin-2-yl)phenoxy)-1-((tetrahydrofuran-2-yl)methyl)-1H-benzo[d]imidazole-6-carboxylic acid] | 3.43
9 | O=C(O)c1ccc2nc(Cc3ccc(-c4cccc(OCc5ccc(Cl)cc5F)n4)cc3)n(C[C@H]3CCOC3)c2c1 [Example 33, (R)-2-(4-(6-((4-chloro-2-fluorobenzyl)oxy)pyridin-2-yl)benzyl)-1-((tetrahydrofuran-3-yl)methyl)-1H-benzo[d]imidazole-6-carboxylic acid] | 0.365
10 | O=C(O)c1ccc2nc(Cc3ccc(-c4cccc(OCc5ccc(Cl)cc5F)n4)c(Cl)c3)n(C[C@@H]3CCCO3)c2c1 [Example 34, (S)-2-(3-chloro-4-(6-((4-chloro-2-fluorobenzyl)oxy)pyridin-2-yl)benzyl)-1-((tetrahydrofuran-2-yl)methyl)-1H-benzo[d]imidazole-6-carboxylic acid] | 0.087
11 | O=C(O)c1ccc2nc(Cc3ccc(-c4cccc(OCc5ccc(Cl)cc5F)n4)cc3)n(C[C@@H]3CCOC3)c2c1 [Example 35, (S)-2-(4-(6-((4-chloro-2-fluorobenzyl)oxy)pyridin-2-yl)benzyl)-1-((tetrahydrofuran-3-yl)methyl)-1H-benzo[d]imidazole-6-carboxylic acid] | 0.784
12 | O=C(O)c1ccc2nc(Cc3ccc(-c4cccc(OCc5ccc(C(F)(F)F)cc5F)n4)cc3)n(C[C@@H]3CCOC3)c2c1 [Example 36, (S)-2-(4-(6-((2-fluoro-4-(trifluoromethyl)benzyl)oxy)pyridin-2-yl)benzyl)-1-((tetrahydrofuran-3-yl)methyl)-1H-benzo[d]imidazole-6-carboxylic acid] | 2.09
13 | O=C(O)c1ccc2nc(Cc3ccc(-c4cccc(OCc5ccc(Cl)cc5F)n4)c(Cl)c3)n(C[C@@H]3CCOC3)c2c1 [Example 37, (S)-2-(3-chloro-4-(6-((4-chloro-2-fluorobenzyl)oxy)pyridin-2-yl)benzyl)-1-((tetrahydrofuran-3-yl)methyl)-1H-benzo[d]imidazole-6-carboxylic acid] | 1.34
